From the supplement of paper PMC10307832

Tests used:
Experiment in all cases: relative viability (nuclei count vs DMSO), 5 days (fraction); higher = more cells survive
DM3189 + Trametinib = compound: C1CN(CCN1)C2=CC=C(C=C2)C3=CN4C(=C(C=N4)C5=CC=NC6=CC=CC=C56)N=C3 [DM3189] + CC(=O)Nc1cccc(-n2c(=O)n(C3CC3)c(=O)c3c(Nc4ccc(I)cc4F)n(C)c(=O)c(C)c32)c1 [Trametinib] (partner 0.02 µM)
Summary of the method: (§1)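 Relative viability divides the nuclei count in treated wells by that in vehicle wells. Lung cancer cell lines were seeded in 1536-well plates, dosed by pin tool the next day, and fixed and stained after 5 days in one step with final 0.05% Triton X-100, 1% formaldehyde and 1 ug/ml Hoechst. Dosing was a single drug or a fixed anchor-drug dose plus five library-drug doses (not always all listed) in √10 steps, and values are medians of duplicate plates imaged at 4×.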

DM3189 + Palbociclib = compound: C1CN(CCN1)C2=CC=C(C=C2)C3=CN4C(=C(C=N4)C5=CC=NC6=CC=CC=C56)N=C3 [DM3189] + CC(=O)c1c(C)c2cnc(Nc3ccc(N4CCNCC4)cn3)nc2n(C2CCCC2)c1=O [Palbociclib] (partner 0.5 µM)
Summary of the method: as §1

DM3189 + Tozasertib = compound: C1CN(CCN1)C2=CC=C(C=C2)C3=CN4C(=C(C=N4)C5=CC=NC6=CC=CC=C56)N=C3 [DM3189] + Cc1cc(Nc2cc(N3CCN(C)CC3)nc(Sc3ccc(NC(=O)C4CC4)cc3)n2)n[nH]1 [Tozasertib] (partner 0.1 µM)
Summary of the method: as §1

DM3189 + Dasatinib = compound: C1CN(CCN1)C2=CC=C(C=C2)C3=CN4C(=C(C=N4)C5=CC=NC6=CC=CC=C56)N=C3 [DM3189] + Cc1nc(Nc2ncc(C(=O)Nc3c(C)cccc3Cl)s2)cc(N2CCN(CCO)CC2)n1 [Dasatinib] (partner 0.075 µM)
Summary of the method: as §1

DM3189 + AZD7762 = compound: C1CN(CCN1)C2=CC=C(C=C2)C3=CN4C(=C(C=N4)C5=CC=NC6=CC=CC=C56)N=C3 [DM3189] + NC(=O)Nc1cc(-c2cccc(F)c2)sc1C(=O)N[C@H]1CCCNC1 [AZD7762] (partner 0.2 µM)
Summary of the method: as §1

Cell Line	relative viability (DM3189 + Trametinib; first compound 0.08 µM)	relative viability (DM3189 + Trametinib; first compound 0.253 µM)	relative viability (DM3189 + Trametinib; first compound 0.8 µM)	relative viability (DM3189 + Trametinib; first compound 2.53 µM)	relative viability (DM3189 + Palbociclib; first compound 0.08 µM)	relative viability (DM3189 + Palbociclib; first compound 0.253 µM)	relative viability (DM3189 + Palbociclib; first compound 0.8 µM)	relative viability (DM3189 + Palbociclib; first compound 2.53 µM)	relative viability (DM3189 + Tozasertib; first compound 0.08 µM)	relative viability (DM3189 + Tozasertib; first compound 0.253 µM)	relative viability (DM3189 + Tozasertib; first compound 0.8 µM)	relative viability (DM3189 + Tozasertib; first compound 2.53 µM)	relative viability (DM3189 + Dasatinib; first compound 0.08 µM)	relative viability (DM3189 + Dasatinib; first compound 0.253 µM)	relative viability (DM3189 + Dasatinib; first compound 0.8 µM)	relative viability (DM3189 + Dasatinib; first compound 2.53 µM)	relative viability (DM3189 + AZD7762; first compound 0.08 µM)	relative viability (DM3189 + AZD7762; first compound 0.253 µM)	relative viability (DM3189 + AZD7762; first compound 0.8 µM)	relative viability (DM3189 + AZD7762; first compound 2.53 µM)
EMC-BAC-2	0.925	0.877	0.891	1.04	0.515	0.494	0.484	0.525	0.302	0.283	0.254	0.323	0.372	0.32	0.319	0.353	1.26	1.03	0.976	1.05
LU99A	0.661	0.533	–	0.634	0.482	0.372	–	0.365	0.284	0.242	–	0.307	0.748	0.565	–	0.595	0.379	0.362	–	0.283
RERF-LC-KJ	1.03	0.95	0.927	0.986	1.31	1.27	0.989	1.03	0.533	0.456	0.466	0.43	1.03	0.891	0.744	0.943	1.51	1.11	1	0.964
NCI-H647	0.488	0.399	0.378	0.412	0.4	0.378	0.273	0.217	0.259	0.212	0.408	0.235	0.264	0.193	0.215	0.157	0.626	0.408	0.4	0.277
